Assay [1] addresses T1, MOR (mu opioid receptor) (Rattus norvegicus, UniProt P33535).
T1 construct: from tissue; host or cells: rat brain membranes
The experiment in a line: MOR radioligand binding assay with [3H]-DAMGO. The following applies: for K i DOR/K i MOR / K i KOR/K i MOR: selectivity ratio.

Assay [2] deals with T2, DOR (delta opioid receptor) (Rattus norvegicus, UniProt P33533). Put plainly: DOR radioligand binding assay with [3H]-Delthorphin.
For assay [3], the target named is T3, KOR (kappa opioid receptor) (Cavia porcellus, UniProt P41144).
T3 construct: from tissue; host or cells: guinea pig brain membranes
T3 sequence (P41144 whole entry): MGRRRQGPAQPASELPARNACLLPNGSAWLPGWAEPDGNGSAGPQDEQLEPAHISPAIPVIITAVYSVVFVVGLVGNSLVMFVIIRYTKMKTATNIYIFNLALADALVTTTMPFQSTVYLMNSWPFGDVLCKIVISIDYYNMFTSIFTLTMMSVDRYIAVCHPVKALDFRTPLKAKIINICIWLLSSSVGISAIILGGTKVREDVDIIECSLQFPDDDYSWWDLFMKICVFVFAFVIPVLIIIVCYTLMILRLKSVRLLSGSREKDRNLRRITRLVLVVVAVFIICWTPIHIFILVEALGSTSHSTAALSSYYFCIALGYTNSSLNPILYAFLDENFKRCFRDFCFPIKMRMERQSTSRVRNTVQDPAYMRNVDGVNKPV
The experiment in a line: KOR radioligand binding assay with [3H]-U69,593. Also on record: species or system guinea pig.

In assay [4] the target is T1, MOR (mu opioid receptor). The conditions noted are these: cited from earlier work.
Assay [5] concerns the target T2, DOR (delta opioid receptor). The following applies: cited from earlier work.
Assay [6] addresses T3, KOR (kappa opioid receptor). The conditions noted are these: cited from earlier work.
Another assay concerns the target MOR. Also on record: method as in Pasquinucci et al. [2010]. The conditions noted are these: Figure 1; ref Pasquinucci et al. [2010]; cited from earlier work.
The target in another assay is DOR. Details: method as in Pasquinucci et al. [2010]. The following applies: Figure 1; ref Pasquinucci et al. [2010]; cited from earlier work.
In a further assay the target is KOR. Details: method as in Pasquinucci et al. [2010]. The conditions noted are these: Figure 1; ref Pasquinucci et al. [2010]; cited from earlier work.
[7] abbreviates: K i (nM) ± SD KOR, [3H]-U69,593, mean ± SD of at least two experiments in duplicate.
Setting [8] is: KOR Expected K i (nM), experimental Ki as repeated in Table 2.
[9] abbreviates: read-out: MOR Expected K i, experimental Ki as repeated in Table 2, previously synthesized compounds, ref Pasquinucci et al. ([2017]), Costanzo et al. ([2023]).
Where [10] appears, read: read-out: DOR Expected K i, experimental Ki as repeated in Table 2, previously synthesized compounds, ref Pasquinucci et al. ([2017]), Costanzo et al. ([2023]).
Where [11] appears, read: read-out: KOR Expected K i, experimental Ki as repeated in Table 2, previously synthesized compounds, ref Pasquinucci et al. ([2017]), Costanzo et al. ([2023]).

Where two headings read alike, the source gives them in different places. A value given as a limit tells only on which side of the number the result lay.

T2 sequence (P33533 whole entry): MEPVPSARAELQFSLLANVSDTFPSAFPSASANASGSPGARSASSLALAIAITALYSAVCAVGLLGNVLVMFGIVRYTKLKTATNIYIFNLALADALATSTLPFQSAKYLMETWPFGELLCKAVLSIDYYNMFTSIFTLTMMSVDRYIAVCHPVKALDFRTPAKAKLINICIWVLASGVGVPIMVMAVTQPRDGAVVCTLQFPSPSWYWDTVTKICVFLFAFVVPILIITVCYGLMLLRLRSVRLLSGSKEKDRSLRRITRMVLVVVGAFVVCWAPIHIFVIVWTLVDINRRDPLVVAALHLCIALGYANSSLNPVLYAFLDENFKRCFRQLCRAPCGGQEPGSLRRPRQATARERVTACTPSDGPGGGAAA
T1 sequence (P33535 whole entry): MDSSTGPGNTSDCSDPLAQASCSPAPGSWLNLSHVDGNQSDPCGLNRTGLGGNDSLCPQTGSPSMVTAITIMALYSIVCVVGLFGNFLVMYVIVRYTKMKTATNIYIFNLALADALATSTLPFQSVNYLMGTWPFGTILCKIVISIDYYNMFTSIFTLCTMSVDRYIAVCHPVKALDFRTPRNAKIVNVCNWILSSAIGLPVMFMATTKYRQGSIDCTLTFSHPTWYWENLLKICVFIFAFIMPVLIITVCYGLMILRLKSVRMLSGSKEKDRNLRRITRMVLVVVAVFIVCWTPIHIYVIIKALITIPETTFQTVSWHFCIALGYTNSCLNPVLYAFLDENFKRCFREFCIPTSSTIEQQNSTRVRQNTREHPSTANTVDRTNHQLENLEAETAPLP

On to `C[C@H]1[C@H]2Cc3ccc(O)cc3[C@]1(C)CCN2CCCC(=O)O` [Compound 6, 4‐((2R,6R,11R)‐8‐Hydroxy‐6,11‐dimethyl‐1,4,5,6‐tetrahydro‐2,6‐methanobenzo[d]azocin‐3(2H)‐yl)butanoic acid], for which the figures for the Ki (on MOR (mu opioid receptor) [1]; in assay [2]; in assay [3] (setting [7])) were 992 ± 55 nM, 1200 ± 64 nM and more than 5000 nM, respectively. Besides, the “K i DOR/K i MOR” value at MOR (mu opioid receptor) [1] was 1.21.

As to `C[C@H]1[C@H]2Cc3ccc(O)cc3[C@]1(C)CCN2CCC(=O)O` [Compound 5, 3‐((2R,6R,11R)‐8‐Hydroxy‐6,11‐dimethyl‐1,4,5,6‐tetrahydro‐2,6‐methanobenzo[d]azocin‐3(2H)‐yl)propanoic acid], the results for the Ki (on MOR (mu opioid receptor) [1]; in assay [2]; in assay [3] (setting [7])) were 383 ± 21 nM, 1100 ± 54 nM and more than 5000 nM, respectively. Moreover, the “K i DOR/K i MOR” value at MOR (mu opioid receptor) [1] worked out at 2.88.

Take `CCOC(=O)C(CCN1CCC2(C)c3cc(O)ccc3CC1C2C)c1ccccc1` (stereo not drawn) [Compound 1]: the “K i DOR/K i MOR” value at MOR (mu opioid receptor) [1] is 40.70. For the same compound, the “K i KOR/K i MOR” value at MOR (mu opioid receptor) [1] is 12.00. Further, the Ki at MOR (mu opioid receptor) [4] (experimental Ki as repeated in Table 2, previously synthesized compounds, ref Pasquinucci et al. ([2017]), Costanzo et al. ([2023]), read-out: MOR Expected K i) was 10.8 ± 2 nM; on MOR (mu opioid receptor) [4] (footnote b, ref Pasquinucci et al. ([2017]), read-out: K i (nM) ± SD MOR), 10.8 ± 2 nM; in [5] (experimental Ki as repeated in Table 2, previously synthesized compounds, ref Pasquinucci et al. ([2017]), Costanzo et al. ([2023]), read-out: DOR Expected K i), 440 ± 22 nM; in assay [5] (footnote b, ref Pasquinucci et al. ([2017]), read-out: K i (nM) ± SD DOR), 440 ± 22 nM; in assay [6] (experimental Ki as repeated in Table 2, previously synthesized compounds, ref Pasquinucci et al. ([2017]), Costanzo et al. ([2023]), read-out: KOR Expected K i), 130 ± 15 nM; in assay [6] (footnote b, ref Pasquinucci et al. ([2017]), read-out: K i (nM) ± SD KOR) it was 130 ± 15 nM.

In the case of `COC(=O)CCN1CC[C@@]2(C)c3cc(O)ccc3C[C@@H]1[C@@H]2C` [Compound 3, Methyl 3‐[(2R,6R,11R)‐8‐hydroxy‐6,11‐dimethyl‐1,4,5, 6‐tetrahydro‐2,6‐methanobenzo[d]azocin‐3(2H]‐yl)propanoate], the Ki at MOR (mu opioid receptor) [1] is 19 ± 3 nM; in assay [2], 513 ± 30 nM; in [3] (setting [7]), 60.7 ± 8 nM; in assay [3] (setting [8]), 60.7 ± 0.7 nM. Further, the “K i DOR/K i MOR” value at MOR (mu opioid receptor) [1] came to 26.98. The “K i KOR/K i MOR” value at MOR (mu opioid receptor) [1] amounted to 3.19.

Turning to `CC1C2Cc3ccc(O)cc3C1(C)CCN2CCC(C(=O)O)c1ccccc1` (stereo not drawn) [Compound 2], at MOR (mu opioid receptor) [1], the “K i DOR/K i MOR” value is recorded as 23.30. Further, the Ki on MOR (mu opioid receptor) [4] (read-out: K i (nM) ± SD MOR, footnote b, ref Pasquinucci et al. ([2017])) is 11.8 ± 2 nM; on MOR (mu opioid receptor) [4] (setting [9]), 11.8 ± 2 nM; in [5] (setting [10]), 275 ± 11 nM; in assay [5] (read-out: K i (nM) ± SD DOR, footnote b, ref Pasquinucci et al. ([2017])) it was 275 ± 11 nM; in assay [6] (read-out: K i (nM) ± SD KOR, footnote b, ref Pasquinucci et al. ([2017])) it was 3220 ± 60 nM; in assay [6] (setting [11]), 3220 ± 60 nM.

`COC(=O)CCCN1CC[C@@]2(C)c3cc(O)ccc3C[C@@H]1[C@@H]2C` [Compound 4, Methyl 4‐((2R,6R,11R)‐8‐hydroxy‐6,11‐dimethyl‐1,4,5,6‐tetrahydro‐2,6‐ methanobenzo[d]azocin‐3(2H)‐yl)butanoate]: the Ki on MOR (mu opioid receptor) [1] was determined as 67.8 ± 7 nM; in assay [2] it was 218 ± 20 nM; in [3] (setting [7]) it was 70.5 nM; in [3] (setting [8]) it was 70.5 ± 0.76 nM. The “K i DOR/K i MOR” value on MOR (mu opioid receptor) [1] came to 3.21. In addition, the “K i KOR/K i MOR” value on MOR (mu opioid receptor) [1] came to 1.04.

For the compound `COC(CN1CCC2(C)c3cc(O)ccc3CC1C2C)c1ccccc1` (stereo not drawn) [LP2], on MOR (mu opioid receptor) [1], the “K i DOR/K i MOR” value came to 6.11. Also, the “K i KOR/K i MOR” value on MOR (mu opioid receptor) [1] is 14.10. The Ki was 1.08 ± 0.1 nM on MOR (mu opioid receptor) [4] (read-out: K i (nM) ± SD MOR, footnote c, ref Costanzo et al. ([2023])); 1.08 ± 0.1 nM on MOR (mu opioid receptor) [4] (setting [9]); 6.61 ± 0.6 nM in assay [5] (setting [10]); 6.61 ± 0.6 nM in assay [5] (read-out: K i (nM) ± SD DOR, footnote c, ref Costanzo et al. ([2023])); 15.2 ± 0.8 nM in assay [6] (read-out: K i (nM) ± SD KOR, footnote c, ref Costanzo et al. ([2023])); 15.2 ± 0.8 nM in [6] (setting [11]).

With `CC1C2Cc3ccc(O)cc3C1(C)CCN2CCC(=O)Nc1ccccc1` (stereo not drawn) [LP1], the figures for the Ki at MOR, on DOR and at KOR were 0.83 nM, 29.1 nM and 110 nM, respectively.

As to `C[C@H]1[C@H]2Cc3ccc(O)cc3[C@]1(C)CCN2CCC(=O)NO` [Compound 7, N‐Hydroxy‐3‐((2R,6R,11R)‐8‐hydroxy‐6,11‐dimethyl‐1,4,5,6‐tetrahydro‐2,6‐methanobenzo[d]azocin‐3(2H)‐yl)propanamide], the Ki was 30.8 ± 2 nM at MOR (mu opioid receptor) [1], 335 ± 19 nM in [2] and more than 5000 nM in assay [3] (setting [7]). For the same compound, the “K i DOR/K i MOR” value at MOR (mu opioid receptor) [1] was 10.89.

Turning to `C[C@H]1[C@H]2Cc3ccc(O)cc3[C@]1(C)CCN2CCCC(=O)NO` [Compound 8, N‐Hydroxy‐4‐((2R,6R,11R)‐8‐hydroxy‐6,11‐dimethyl‐1,4,5,6‐tetrahydro‐2,6‐methanobenzo[d]azocin‐3(2H)‐yl)butanamide], the values for the Ki (on MOR (mu opioid receptor) [1]; in assay [2]; in assay [3] (setting [7])) were 42.2 ± 3 nM, 1300 ± 80 nM and more than 5000 nM, respectively. Besides, the “K i DOR/K i MOR” value on MOR (mu opioid receptor) [1] worked out at 30.83.
